Conditions: 303.15 K, Liquid, Vibrating tube method

FC(C(F)(F)F)C(F)(F)F [1,1,1,2,3,3,3-heptafluoropropane]
Conditions	mass density [kg/m3]
1945 kPa	1378.6
1968 kPa	1378.8
1989 kPa	1379
2014 kPa	1379.2
2041 kPa	1379.4
2063 kPa	1379.7
2084 kPa	1379.7
2105 kPa	1379.8
2131 kPa	1380.1
2283 kPa	1381.5
2308 kPa	1381.6
2332 kPa	1381.8
2353 kPa	1381.9
2378 kPa	1382.2
2402 kPa	1382.4
2418 kPa	1382.4
2439 kPa	1382.6
2461 kPa	1382.7
2482 kPa	1383
2510 kPa	1383.4
2528 kPa	1383.3
2552 kPa	1383.4
2569 kPa	1383.6
2591 kPa	1383.8
2607 kPa	1384
2632 kPa	1384.1
2651 kPa	1384.2
2673 kPa	1384.4
2695 kPa	1384.5
2718 kPa	1384.7
2737 kPa	1384.9
2762 kPa	1385
3000 kPa	1387
3022 kPa	1387.1
3068 kPa	1387.5
3088 kPa	1387.7
3114 kPa	1387.8
3136 kPa	1387.9
3203 kPa	1388.6
3222 kPa	1388.8
3271 kPa	1389
3293 kPa	1389.2
3319 kPa	1389.4
3357 kPa	1389.6
3383 kPa	1389.8
3402 kPa	1390.2
3428 kPa	1390.3
3448 kPa	1390.3
3471 kPa	1390.4
3498 kPa	1390.7
3521 kPa	1390.8
3541 kPa	1391.2
3568 kPa	1391.4
3587 kPa	1391.3
3614 kPa	1391.6
3637 kPa	1391.7
3667 kPa	1391.9
3690 kPa	1392.1
3714 kPa	1392.2
3735 kPa	1392.5
3765 kPa	1392.7
3789 kPa	1393
3820 kPa	1393
3844 kPa	1393.3
3875 kPa	1393.5
3902 kPa	1393.7
3919 kPa	1393.8
3940 kPa	1394
3964 kPa	1394.2
3991 kPa	1394.5
4022 kPa	1394.6
4050 kPa	1394.7
4072 kPa	1395
4099 kPa	1395.1
4123 kPa	1395.3
4147 kPa	1395.5
4168 kPa	1395.6
4189 kPa	1395.8
4217 kPa	1396
4249 kPa	1396.3
4273 kPa	1396.5
4290 kPa	1396.4
4416 kPa	1397.5
4444 kPa	1397.6
4466 kPa	1397.8
4497 kPa	1397.9
4524 kPa	1398
4552 kPa	1398.4
4582 kPa	1398.6
4611 kPa	1398.9
4633 kPa	1399.1
4659 kPa	1399.4
4684 kPa	1399.2
4710 kPa	1399.5
4735 kPa	1399.6
4765 kPa	1399.9
4788 kPa	1400
4811 kPa	1400.2
4875 kPa	1400.6
4904 kPa	1400.9
4933 kPa	1401.1
4958 kPa	1401.2
4984 kPa	1401.4
5013 kPa	1401.5
5035 kPa	1401.8
5060 kPa	1401.7
5082 kPa	1402.2
5116 kPa	1402.4
5146 kPa	1402.4
5172 kPa	1402.6
5194 kPa	1402.8
5221 kPa	1403
5239 kPa	1403
5261 kPa	1403.2
5286 kPa	1403.5
5308 kPa	1403.6
5335 kPa	1403.7
5356 kPa	1403.9
5379 kPa	1404
5405 kPa	1404.1
5427 kPa	1404.4
5457 kPa	1404.7
5479 kPa	1404.8
5509 kPa	1405
5546 kPa	1405.2
5568 kPa	1405.3
5609 kPa	1405.6
5635 kPa	1405.8
5654 kPa	1405.9
5688 kPa	1406.2
5715 kPa	1406.3
5738 kPa	1406.4
5768 kPa	1406.6
5795 kPa	1406.8
5829 kPa	1407.1
5856 kPa	1407.3
5879 kPa	1407.3
5906 kPa	1407.7
5934 kPa	1407.9
5957 kPa	1408
5980 kPa	1408.2
6003 kPa	1408.2
6033 kPa	1408.4
6056 kPa	1408.6
6080 kPa	1408.8
6108 kPa	1408.9
6135 kPa	1409
6167 kPa	1409.2
6186 kPa	1409.4
6217 kPa	1409.6
6240 kPa	1409.7
6272 kPa	1409.9
6300 kPa	1410.1
6332 kPa	1410.3
6356 kPa	1410.5
6382 kPa	1410.7
6413 kPa	1410.8
6441 kPa	1411.1
6469 kPa	1411.1
6493 kPa	1411.3
6529 kPa	1411.6
6556 kPa	1411.7
6581 kPa	1411.9
6617 kPa	1412.2
6647 kPa	1412.4
6675 kPa	1412.6
6699 kPa	1412.7
6720 kPa	1412.9
6744 kPa	1413.1
6772 kPa	1413.3
6796 kPa	1413.4
6820 kPa	1413.5
6845 kPa	1413.6
6881 kPa	1414
6909 kPa	1414.1
6937 kPa	1414.3
6974 kPa	1414.4
7006 kPa	1414.7
7030 kPa	1414.8
7056 kPa	1415
7077 kPa	1415.1
7110 kPa	1415.2
7138 kPa	1415.5
7171 kPa	1415.7
7192 kPa	1415.8
7216 kPa	1416
7441 kPa	1417.3
7474 kPa	1417.5
7507 kPa	1417.7
7536 kPa	1417.9
7570 kPa	1418.2
7599 kPa	1418.3
7628 kPa	1418.5
7669 kPa	1418.7
7702 kPa	1418.8
7727 kPa	1419
7762 kPa	1419.2
7795 kPa	1419.4
7821 kPa	1419.5
7850 kPa	1419.8
7879 kPa	1420
7912 kPa	1420.3
7941 kPa	1420.4
7970 kPa	1420.6
8008 kPa	1420.7
8033 kPa	1421
